In patent US20210223266A1, “METHODOLOGIES AND METHODS FOR MEASURING HIGHER MOLECULAR WEIGHT TRANSTHYRETIN OR EQUIVALENTS AS A CLINICAL BIOMARKER” (TTR Therapeutics, priority 2019, published 2021):

How the values were obtained:
[1] = target: T1, TTR tetramer (Homo sapiens, UniProt P02766); settings: wtATTR-CM, off-label diflunisal; untreated 22 mg/dL (12-29); cited from earlier work
T1 construct: TTR tetramer levels were measured by immunoturbidimetric (IT) assays by Abbot Laboratories; from tissue; host or cells: blood samples of human wtATTR-CM patients (literature study, Circ Heart Fail 2018)

[2] = tested on: wtATTR-CM patients; settings: p<0.001; cited from earlier work
[3] = tested on: TTR-assisted beta-amyloid (Aβ) transport; settings: cited from earlier work
[4] = target: TTR (Homo sapiens, UniProt P02766); experiment: TTR levels in ATTR-CM patients on tafamidis 20 mg QD (Fx1B-201), immunoturbidimetric assays; assay type: in vivo; settings: wtATTR-CM patients
Procedure: (§1) We believe these levels were measured using immunoturbidimetric assays performed by Genzyme Analytic Services.

[5] = target: TTR (Homo sapiens, UniProt P02766, V142I); experiment: as above; assay type: in vivo; settings: V1221 mATTR-CM patients
Procedure: as §1

[6] = tested on: TTR; experiment: TTR levels at tafamidis 20 vs 80 mg, Phase 3 ATTR-ACT trial; assay type: in vivo, human; settings: proprietary analysis
Procedure: We believe our discovery has relevance to the recently reported Phase 3 ATTR-ACT trial that readout positive mortality reduction with pooled tafamidis (20 mg and 80 mg QD) vs placebo. […] This is in line with one of Pfizer's expectations for the Phase 3 protocol (Maurer 2018, Phase 3 Final Protocol, 31 Jul. 2013. PF-06291826 Tafamidis Meglumine. B3461028) when looking at the plot of % TTR stabilization (y-axis) and molar ratio of tafamidis in FIG. 5: TTR levels (μM). We highlighted in red the wide ranges for pharmacodynamic effects related to 80 mg relative to 20 mg (in blue shade) to point out (1) potential for both dose-strengths to nearly overlap, (2) plotted data points were from Phase 1 data in healthy volunteers using liquid formulations of tafamidis (not capsule formulation given in Phase 3 ATTR-ACT trial), and (3) 80 mg PD expectations were calculated as a 4× multiple of 20 mg PD data, which could be important given PK variations may have not been optimized and could explain differences seen in Phase 3 ATTR-ACT clinical trial which tested 20 mg and 80 mg doses of tafamidis.

[7] = Tafamidis exposure in vitreous fluid / across blood-brain barrier after oral dosing; assay type: in vivo, human; settings: long-term
From the text: Multiple publications have reported reduced serum TTR levels, as measured by nephelometry or radial immunodiffusion (commercial kits readily available), in familial amyloid polyneuropathy patients with vitreous amyloidosis. “Prealbumin. A major constituent of vitreous amyloid,” Ophthalmology. 1987 July; 94(7):792-8. […] “Transthyretin deposition in the eye in the era of effective therapy for hereditary ATTRV30M amyloidosis,” https://doi.org/10.1080/13506129.2018.1554563.

[8] = tested on: ATTR-CM patients; settings: cited from earlier work
[9] = tested on: ATTR patients with mutated TTR (V30M); settings: cited from earlier work
[10] = oral tafamidis (presumably 20 mg QD) long-term; cited from earlier work
[11] = tested on: native TTR; settings: Taf Group; no Taf Group 273.8 nM, non-ATTR controls 271.5 nM; not significantly different; cited from earlier work
[12] = tested on: HMW TTR; settings: V30M ATTR patients; cited from earlier work

Q: With O=C(O)c1cc(-c2ccc(F)cc2F)ccc1O [diflunisal] as the compound, how does the “TTR levels after one year” value [1] read?
A: 30 mg/dL

Q: And the “one-year survival-rates vs untreated” value [2]?
A: improved one-year survival-rates

Q: With O=C(O)c1cc(-c2ccc(F)cc2F)cc(I)c1O [iodo-diflunisal] as the compound, how does the “TTR-assisted beta-amyloid (Aβ) transport” value [3] read?
A: enhanced

Q: With O=C(O)c1ccc2nc(-c3cc(Cl)cc(Cl)c3)oc2c1 [tafamidis] as the compound, how does the “increase of TTR levels from baseline” value [4] read?
A: ~17%

Q: What about the “increase of TTR levels from baseline” value [5] of the same compound?
A: 50-60%

Q: And the “differences in TTR levels between the two dose-strengths” value [6]?
A: ~1 mg/dL

Q: And the blood-brain barrier crossing [7]?
A: can cross the blood-brain barrier

Q: What about the “lower death-rates at month-30 compared to untreated” value ([8]; ATTR-CM patients, 20 mg tafamidis, long-term follow-up) of the same compound?
A: ~40%

Q: What about the “rate at month-30 (77% vs 45% untreated)” value ([8]; ATTR-CM patients, 20 mg tafamidis) of the same compound?
A: 77%

Q: What about the “reduction in death-rate at month-30 vs placebo” value ([8]; Phase 3 ATTR-ACT, pooled 20 mg QD and 80 mg QD, mATTR and wtATTR-CM) of the same compound?
A: ~30%

Q: What about the ocular abnormalities ([9]; 20 mg/day, liver transplant 34%, supportive therapy 26%) of the same compound?
A: 22%

Q: And the “ocular abnormalities compared to untreated or liver transplantation” value ([9]; ATTR-PN, long-term treatment (>5 years), p=0.09 vs untreated, p=0.007 vs liver transplantation)?
A: lower ocular abnormalities

Q: What about the “drug levels in the vitreous fluid” value [10] of the same compound?
A: detectable drug levels

Q: What about the “Average [native TTR] in the CSF” value [11] of the same compound?
A: 265.8 nM

Q: And the “HMW TTR levels” value [12]?
A: increase HMW TTR levels
